Data from US20130156845A1, “LIPID FORMULATED SINGLE STRANDED RNA” (ALNYLAM PHARMACEUTICALS, INC., priority 2010, published 2013).
Like-named read-outs stand apart in the source and are kept apart here. e = 2'-O-(2-methoxyethyl) (MOE); {P} = phosphate; f = 2'-fluoro

What was measured:
[1] = Phosphate stability in mouse serum (Example 68)
Method: Single-stranded oligomeric compounds were tested for stability in mouse serum.

PTEN [2] = assay: PTEN mRNA reduction in HeLa cells, dose response (Example 59); type: cell-based, human; conditions: percent inhibition of PTEN mRNA, real-time PCR normalized to RIBOGREEN, 0.20-50 nM
Method: When cells reached 65-75% confluency, they are treated with one or more oligomeric compounds. The oligomeric compound is mixed with LIPOFECTIN™ Invitrogen Life Technologies, Carlsbad, Calif.) in Opti-MEM™-1 reduced serum medium (Invitrogen Life Technologies, Carlsbad, Calif.) to achieve the desired concentration of the oligomeric compound(s) and a LIPOFECTIN™ concentration of 2.5 or 3 μg/mL per 100 nM oligomeric compound(s). This transfection mixture is incubated at room temperature for approximately 0.5 hours. For cells grown in 96-well plates, wells are washed once with 100 μL OPTI-MEM™-1 and then treated with 130 μL of the transfection mixture. Cells grown in 24-well plates or other standard tissue culture plates are treated similarly, using appropriate volumes of medium and oligomeric compound(s). […]
Quantitation of target mRNA levels is accomplished by real-time quantitative PCR using the ABI PRISM™ 7600, 7700, or 7900 Sequence Detection System (PE-Applied Biosystems, Foster City, Calif.) according to manufacturer's instructions. This is a closed-tube, non-gel-based, fluorescence detection system which allows high-throughput quantitation of polymerase chain reaction (PCR) products in real-time. As opposed to standard PCR in which amplification products are quantitated after the PCR is completed, products in real-time quantitative PCR are quantitated as they accumulate. […]

PTEN [3] = assay: PTEN mRNA reduction in HeLa cells, dose response (Example 72); type: cell-based, human; conditions: percent inhibition of PTEN mRNA, 0.167-50 nM
Method: In accordance with the present disclosure, oligomeric compounds were synthesized and tested for their ability to reduce PTEN expression over a range of doses. Human HeLa cells were treated with the following oligomeric compounds. A dose comparison was evaluated with dose concentrations of 0.167, 0.5, 1.5, 5, 15 and 50 nM using methods described herein. Expression levels of PTEN were determined using real-time PCR and normalized to RIBOGREEN™ using methods described herein. The percent inhibition of PTEN mRNA was determined and the resulting dose-response curves were used to determine the IC50. The IC50s are listed below.

human PTEN = assay: PTEN expression in HeLa cells, ssRNAs vs siRNAs (Example 62); type: cell-based
Outline: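 HeLa cells treated with antisense strands either as single-stranded RNAs or duplexed with a common sense strand. PTEN mRNA levels normalized; IC50 from linear regression of normalized mRNA against log concentration.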

PTEN [4] = assay: PTEN mRNA reduction in HeLa cells, dose response (Example 64); type: cell-based, human; conditions: real-time PCR, 1.56-50 nM
Method: A dose response experiment was performed targeting PTEN in human HeLa cells to determine the effects of placement of sugar and internucleoside linkages within ssRNAs. More specifically, the modified ssRNAs were tested for their ability to reduce PTEN mRNA in cultured cells. The modified ssRNAs are shown below, and contain 2′-OMe and 2′-fluoro modified nucleosides, two 2′-O-MOE modified nucleosides at the 3′-terminus, and seven phosphorothioate linkages at the 3′-terminus of the ssRNAs.
HeLa cells were treated with ssRNAs shown below at concentrations of 1.56 nM, 3.13 nM, 6.25 nM, 12.5 nM, […] and 50 nM using methods described herein. Levels of mRNA were determined using real-time PCR methods as described herein. The IC50 for each ssRNA was determined.

P-UfUfGfUfCfUfCfUfGfGfUfCfCfUfUfAfCfUfUfAeAe (antisense UUGUCUCUGGUCCUUACUUAA; sugars from the 5' end f19 e2, 5' {P}, backbone not given here) [ISIS 404320, modified ssRNA targeting PTEN]
T1/2 full length ([1]; four compounds tested separately, second table): 24 min | T1/2 full length ([1]; full compound with intact phosphorous moiety, first table): 24 min | EC50 (PTEN [2]): 13.2 nM | IC50 (PTEN [3]): 7.6 nM | EC50 (human PTEN; antisense strand duplexed with sense strand ISIS 341401, PTEN mRNA, read-out: EC50 (nM) siRNA): 0.5 nM | EC50 (human PTEN; single stranded antisense compound, PTEN mRNA, read-out: EC50 (nM) ssRNA): 5 nM | IC50 (PTEN [4]): 5.8 nM
